Tests used:
[1] = tested on: grapes gray mold fungus (Botrytis cinerea); experiment: Control test against efflux type multidrug resistant grapes gray mold fungus (growth in PDB, absorbance at 600 nm); assay type: cell-based; settings: for EC50 value ratio 1: EC50 against resistant strain 1 / EC50 against wild-type strain; for EC50 value ratio 2: EC50 against resistant strain 2 / EC50 against wild-type strain; for EC50 value ratio 3: EC50 against resistant strain 3 / EC50 against wild-type strain; for EC50 value, Efflux type multidrug resistant fungus strain 1: strain 1: ABC transporter-overexpressing (Bc-56, NITE BP-02676); for EC50 value, Efflux type multidrug resistant fungus strain 1 / EC50 value, Efflux type multidrug resistant fungus strain 2 / EC50 value, Efflux type multidrug resistant fungus strain 3 / EC50 value, Wild-type fungus strain: 18° C., 2 days; for EC50 value, Efflux type multidrug resistant fungus strain 2: strain 2: MFS transporter-overexpressing (Bc-107, NITE BP-02678); for EC50 value, Efflux type multidrug resistant fungus strain 3: strain 3: ABC transporter and MFS transporter-overexpressing (Bc-103, NITE BP-02677)
Protocol: (§1) Efficacy=100×(X−Y)/X “Equation 1” • X: Degree of growth of fungus in non-treated group • Y: Degree of growth of fungus in treated group
(§2) EC50 value ratio=EC50 value against efflux type multidrug resistant fungus strain/EC50 value against wild-type fungus strain “Equation 2”
Control Test Against Efflux Type Multidrug Resistant Grapes Gray Mold Fungus (Botrytis cinerea)
Each of the present compound (1), fludioxonil and tolnaftrate was diluted with dimethyl sulfoxide to a prescribed concentration thereof, respectively. Each of the chemical solutions comprising the respective testing compound was dispensed into a titer plate (with 96 wells) in the amount of 1 μL. Thereto was then dispensed 150 μL of a potato dextrose broth (PDB culture media) to which each conidia of grapes gray mold fungi, that is, efflux type multidrug resistant fungus strains (specifically, efflux type multidrug resistant fungus strain 1: ABC transporter-overexpressing fungus strain (fungus strain name: NITE accession number (NITE BP-02676), in-house management codes (Bc-56)); efflux type multidrug resistant fungus strain 2: MFS transporter-overexpressing fungus strain (fungus strain name: NITE accession number (NITE BP-02678), in-house management codes (Bc-107)); and efflux type multidrug resistant fungus strain 3: ABC transporter and MFS transporter-overexpressing fungus strain (fungus strain name: NITE accession number (NITE BP-02677), in-house management codes (Bc-103))) or wild-type fungus strain, respectively, was inoculated in advance. The plate was cultured at 18° C. for 2 days, thereby allowing each grapes gray mold fungus to undergo proliferation, and the absorbance at 600 nm of each well of the titer plate was then measured to determine a degree of growth of each of the grapes gray mold fungi (treated group). On the other hand, each of the groups where the wild-type fungus strain or the efflux type multidrug resistant grapes gray mold fungus strains was grown except that the chemical solution was replaced with dimethyl sulfoxide were made non-treated group, respectively, and then the degree of the growth thereof was examined (non-treated group).
The efficacy was calculated from the degree of the growth by the below-mentioned “Equation 1”, and then each EC50 value of the testing compound, respectively against the efflux type multidrug resistant fungus strains and the wild-type fungus strain was calculated. Also, an EC50 value ratio was calculated by the above-mentioned “Equation 2”.

[2] = tested on: wheat Septoria leaf blotch fungus (Zymoseptoria tritici); experiment: Control test against efflux type multidrug resistant wheat Septoria leaf blotch fungus (growth in PDB, absorbance at 600 nm); assay type: cell-based; settings: for EC50 value ratio: EC50 against efflux type multidrug resistant strain / EC50 against wild-type strain; for EC50 value, Efflux type multidrug resistant fungus strain: efflux type multidrug resistant fungus strain St 106-6; for EC50 value, Efflux type multidrug resistant fungus strain / EC50 value, Wild-type fungus strain: 18° C., 4 days
Protocol: Control test against Efflux type multidrug resistant wheat Septoria leaf blotch fungus (Zymoseptoria tritici)
Each of the present compound (1) and tolnaftrate was diluted with dimethyl sulfoxide to a prescribed concentration thereof, respectively. Each of the chemical solutions comprising the respective testing compound was dispensed into a titer plate (with 96 wells) in the amount of 1 μL. Thereto was then dispensed 150 μL of a potato dextrose broth (PDB culture media) to which each conidia of wheat Septoria leaf blotch fungus (efflux type multidrug resistant fungus strains) (fungus strain name: St 106-6 as in-house management codes) or wild-type fungus strain, respectively, was inoculated in advance. The plate was cultured at 18° C. for 4 days, thereby allowing each wheat Septoria leaf blotch fungus to undergo proliferation, and the absorbance at 600 nm of each well of the titer plate was then measured to determine a degree of growth of the wheat Septoria leaf blotch fungus (treated group). On the other hand, each of the groups where the wild-type fungus strain or the efflux type multidrug resistant wheat Septoria leaf blotch fungus strain was grown except that the chemical solution was replaced with dimethyl sulfoxide were made non-treated group, respectively, and then the degree of growth thereof was examined (non-treated group).
The efficacy was calculated from the degree of the growth by the below-mentioned “Equation 1”, and then each […] value of the testing compound, respectively against the efflux type multidrug resistant fungus strains and the wild-type fungus strain was calculated. Next, as shown in the below-mentioned “Equation 2”, an EC50 value ratio was calculated by dividing an EC50 value against the efflux type multidrug resistant fungus strains by an EC50 value against the wild-type fungus strain.
as §1, §2

| SMILES | EC50 value ratio 1 [1] | EC50 value ratio 2 [1] | EC50 value ratio 3 [1] | EC50 value, Efflux type multidrug resistant fungus strain 1 [1] [ppm] | EC50 value, Efflux type multidrug resistant fungus strain 2 [1] [ppm] | EC50 value, Efflux type multidrug resistant fungus strain 3 [1] [ppm] | EC50 value, Wild-type fungus strain [1] [ppm] | EC50 value ratio [2] | EC50 value, Efflux type multidrug resistant fungus strain [2] [ppm] | EC50 value, Wild-type fungus strain [2] [ppm] | EC50 value ratio ([2]; listed as tolnaftate) | EC50 value ratio 1 ([1]; listed as tolnaftate) | EC50 value ratio 2 ([1]; listed as tolnaftate) | EC50 value ratio 3 ([1]; listed as tolnaftate) |
| --- | --- | --- | --- | --- | --- | --- | --- | --- | --- | --- | --- | --- | --- | --- |
| N#Cc1c[nH]cc1-c1cccc2c1OC(F)(F)O2 [Fludioxonil] | 23 | 14 | 43 | 0.19 | 0.12 | 0.36 | 0.0085 | – | – | – | – | – | – | – |
| Cc1nn(C)c(Nc2c(F)cccc2Cl)c1-c1ccc(F)cc1Br [Present compound (1)] | 1.7 | 1.6 | 1.1 | 0.11 | 0.11 | 0.072 | 0.067 | 1.1 | 0.052 | 0.048 | – | – | – | – |
| Cc1cccc(N(C)C(=S)Oc2ccc3ccccc3c2)c1 [Tolnaftate] | >4.5 | >4.5 | >4.5 | >10 | >10 | >10 | 2.2 | >19 | >10 | 0.51 | 19 | more than 4.5 | more than 4.5 | more than 4.5 |

— patent US20210127675A1, “METHOD FOR C[…]-TYPE MULTIDRUG RESISTANT PLANT DISEASES” (priority 2017, published 2021)
